Laboratory results as given in patent US12571764B2, “Receptor-based biosensors” (STATE OF ISRAEL, MINISTRY OF AGRICULTURE & RURAL …, priority 2020, dated 2026).
Blank lines part the entries; values can stand above or below the molecule they belong to.

Assays:
[1] = target: T1, Aedes aegypti OR8 (AaOR8) (Aedes aegypti, UniProt Q16MN0); test: Activation of mosquito odorant receptor OR8 from Aedes aegypti (AaOR8), FIG. 17A; format: cell-based; details: molar concentration, read-out: A. agypti OR8 EC50
T1 sequence (Q16MN0 1-422): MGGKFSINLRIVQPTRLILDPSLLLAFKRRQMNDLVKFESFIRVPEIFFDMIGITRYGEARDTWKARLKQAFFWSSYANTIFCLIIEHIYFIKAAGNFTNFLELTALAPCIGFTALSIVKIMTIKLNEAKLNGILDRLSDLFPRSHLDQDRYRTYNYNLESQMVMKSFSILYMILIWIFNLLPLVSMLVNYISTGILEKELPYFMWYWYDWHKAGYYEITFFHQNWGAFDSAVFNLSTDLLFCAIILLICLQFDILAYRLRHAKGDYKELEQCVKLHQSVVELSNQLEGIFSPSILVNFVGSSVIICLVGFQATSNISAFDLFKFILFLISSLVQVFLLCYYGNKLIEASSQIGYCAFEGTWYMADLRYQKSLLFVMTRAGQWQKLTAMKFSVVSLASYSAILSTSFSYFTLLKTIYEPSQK
T1 sequence (Q178U6 1-478 partner): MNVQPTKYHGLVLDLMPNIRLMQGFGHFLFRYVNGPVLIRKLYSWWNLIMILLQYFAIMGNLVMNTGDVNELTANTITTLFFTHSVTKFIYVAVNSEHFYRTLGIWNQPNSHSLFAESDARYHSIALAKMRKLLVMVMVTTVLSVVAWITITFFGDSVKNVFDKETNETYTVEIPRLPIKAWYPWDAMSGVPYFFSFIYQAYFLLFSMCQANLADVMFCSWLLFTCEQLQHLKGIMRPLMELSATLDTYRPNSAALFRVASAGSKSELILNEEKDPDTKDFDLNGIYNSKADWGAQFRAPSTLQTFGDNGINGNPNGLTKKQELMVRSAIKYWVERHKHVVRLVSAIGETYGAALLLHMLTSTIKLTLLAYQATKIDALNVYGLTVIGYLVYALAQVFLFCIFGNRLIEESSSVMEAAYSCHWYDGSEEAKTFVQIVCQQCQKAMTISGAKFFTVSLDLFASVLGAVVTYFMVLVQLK
Text: (§1) FIG. 17B-OR8 is an enantioselective octenol receptor, distinguishing between the (R)-enantiomer, which is the most abundant form in nature, and the(S)-enantiomer.
(§2) Orco expression, electrophysiology and purification. Supply of Orco-rich membranes will be predicated on the functional validation carried out using the two-electrode voltage clamp of Xenopus oocytes expressing this receptor. Expression and recordation of the pharmacological activity of mosquito odorant receptor complexes (ORx-Orco) in Xenopus oocytes has been studies extensively. This technique to study the agonist activity of Orco agonists (e.g., VUAA1) and antagonists (e.g., octadienal and carvacrol) (as shown in FIG. 4A) or associated with ORx has been achieved. In some cases Orco rather than ORx was used in order to reduce potential pitfalls associated with OR complexes. In some cases, ORx alone is not functional without its co-receptor chaperone. Two types of expression vectors adapted to Xenopus oocyte expression are used. pSP64DV was used to record currents reaching over 1 μA from Orco exposed to VUAA1, indicating high protein levels (FIG. 4B). […] This plasmid functions well in Xenopus oocytes and adds a constitutively fluorescent mKate2 tag on the C-terminus of the protein of interest (here Orco) that can be directly or indirectly (fluorescence immunohistochemistry) detected by confocal scanning laser microscopy. […]

[2] = test system: Toxorhynchites amboinensis OR8 (TaOR8); test: Activation of mosquito odorant receptor OR8 from Toxorhynchites amboinensis (TaOR8), FIG. 17A; format: cell-based; details: molar concentration, read-out: T. amboinensis OR8 (TaOR8) EC50
Text: as §1, §2

[3] = test system: OR8 from Aedes aegypti (AaOR8); test: mosquito odorant receptor 8 activation by odorants (AaOR8); format: cell-based; details: FIG. 17A
Text: as §1
(§3) Indeed, any modifications of the double bond saturation, side chain length, chiral center position, or functional substitution of the (R)-1-octen-3-ol chemical structure is sufficient to prevent OR8 from being activated (FIG. 17B).

[4] = test system: OR8 from Toxorhynchites amboinensis (TaOR8); test: mosquito odorant receptor 8 activation by odorants (TaOR8); format: cell-based; details: FIG. 17A
Text: as §1, §3

[5] = test system: mosquito odorant receptors known as OR8; test: mosquito odorant receptor OR8 activation and odorant tuning; format: cell-based; details: FIG. 17A
Text: as §3
These studies established OR8 as a sensitive enantioselective odorant receptor, whose narrow odorant tuning is optimal in the nanomolar range, which is excellent in the field of receptor pharmacology. […] OR8 is the epitome of receptor selectivity, being able to reject any slight modification on the (R)-1-octen-3-ol backbone manifesting in complete activation shutdown (FIG. 17B). At a low concentration the receptor is specific to (R)-1-octen-3-ol (FIG. 17C), which is a desirable property for the purpose of using this receptor to detect early signs of microbial contamination or presence.

[6] = target: T2, Aedes aegypti Orco (Aedes aegypti, UniProt Q178U6); test: two-electrode voltage clamp of Xenopus oocytes expressing Orco; format: cell-based; details: for effect on VUAA1-activated Orco: oocytes expressing Aedes aegypti Orco, 2.10-4 M VUAA1 with equimolar concentration of antagonist
T2 construct: expressed in transfected cells; host or cells: Xenopus oocytes injected with capped Orco RNA from linearized pSP64DV
T2 sequence (Q178U6 1-478): T1 sequence (Q178U6 1-478 partner)
Text: FIG. 4A-Chemical structures of tested compounds. FIG. 4B-Representative current traces of oocytes expressing Aedes aegypti Orco following exposure to 2.10-4 M VUAA1 alone or in combination with equimolar concentrations of the antagonists octadienal and carvacrol. FIG. 4C-Normalized responses of AaegOrco to VUAA1 alone or in combination with octadienal or carvacrol. Odorants effects were statistically significant (one-way ANOVA followed by Tukey's post-test; P<0.0001; mean responses+s.e.m.; VUAA1 alone, n=7; octadienal & carvacrol n=6).
Orco expression, electrophysiology and purification. Supply of Orco-rich membranes will be predicated on the functional validation carried out using the two-electrode voltage clamp of Xenopus oocytes expressing this receptor. Expression and recordation of the pharmacological activity of mosquito odorant receptor complexes (ORx-Orco) in Xenopus oocytes has been studies extensively. This technique to study the agonist activity of Orco agonists (e.g., VUAA1) and antagonists (e.g., octadienal and carvacrol) (as shown in FIG. 4A) or associated with ORx has been achieved. In some cases Orco rather than ORx was used in order to reduce potential pitfalls associated with OR complexes. In some cases, ORx alone is not functional without its co-receptor chaperone. Two types of expression vectors adapted to Xenopus oocyte expression are used. pSP64DV was used to record currents reaching over 1 μA from Orco exposed to VUAA1, indicating high protein levels (FIG. 4B). Considering the objective to extract Orco-rich membrane fragments less than <50 nm in length, receptor density should be sufficient to ensure that these short fragments contain Orco. To evaluate Orco density, this gene was expressed using the pCMV6-AC-mKate expression vectors (Origene), or other tagged version. This plasmid functions well in Xenopus oocytes and adds a constitutively fluorescent mKate2 tag on the C-terminus of the protein of interest (here Orco) that can be directly or indirectly (fluorescence immunohistochemistry) detected by confocal scanning laser microscopy. […]

[7] = target: OR2 (Anopheles gambiae, UniProt Q8WTE6); details: background, based on cell-based assays; cited from earlier work
[8] = cited from earlier work
[9] = test system: OR9/OR10; details: background, based on cell-based assays; cited from earlier work

OR2, sequence (Q8WTE6 whole entry, species assumed): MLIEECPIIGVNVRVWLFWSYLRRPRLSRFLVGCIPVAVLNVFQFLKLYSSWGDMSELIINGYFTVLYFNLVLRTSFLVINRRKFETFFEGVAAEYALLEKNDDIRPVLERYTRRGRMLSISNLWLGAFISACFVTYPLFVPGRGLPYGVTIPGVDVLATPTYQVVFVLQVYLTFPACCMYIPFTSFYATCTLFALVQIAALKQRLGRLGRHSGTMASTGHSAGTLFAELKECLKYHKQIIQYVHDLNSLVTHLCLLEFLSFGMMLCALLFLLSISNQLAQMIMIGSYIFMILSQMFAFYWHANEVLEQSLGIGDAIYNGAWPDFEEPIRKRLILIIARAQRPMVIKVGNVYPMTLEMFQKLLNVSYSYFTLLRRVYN
OR2, sequence (Q7QCC7 whole entry partner, species assumed): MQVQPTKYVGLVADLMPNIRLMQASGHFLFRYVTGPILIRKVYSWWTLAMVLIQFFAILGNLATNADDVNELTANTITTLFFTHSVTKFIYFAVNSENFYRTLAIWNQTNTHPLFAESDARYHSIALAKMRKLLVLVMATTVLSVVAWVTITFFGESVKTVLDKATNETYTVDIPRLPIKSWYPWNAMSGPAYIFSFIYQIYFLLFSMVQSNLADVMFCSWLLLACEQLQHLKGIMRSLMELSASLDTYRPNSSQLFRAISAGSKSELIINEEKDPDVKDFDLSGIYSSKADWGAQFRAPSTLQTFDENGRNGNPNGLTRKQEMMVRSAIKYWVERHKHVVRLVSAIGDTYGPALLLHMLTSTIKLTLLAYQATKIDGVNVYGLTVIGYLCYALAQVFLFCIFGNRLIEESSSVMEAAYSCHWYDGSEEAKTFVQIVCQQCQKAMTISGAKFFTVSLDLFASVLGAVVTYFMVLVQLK

EC50 [1]: 213 nM
Molecule: C=C[C@H](O)CCCCC [(R)-1-Octen-3-ol, (R)-1-octen-3-ol]
EC50 [2]: 401 nM

sensitivity of AaOR8 (activating concentration range) [3]: parts per billion range | concentration range at which OR8 is activated [5]: parts per billion range
Molecule: C=C[C@H](O)CCCCC [(R)-1-octen-3-ol]
sensitivity of TaOR8 (activating concentration range) [4]: parts per billion range

Molecule: CCc1ccc(NC(=O)CSc2nnc(-c3cccnc3)n2CC)cc1 [VUAA1]
currents recorded from Orco exposed to VUAA1 ([6]; Xenopus oocytes, pSP64DV expression vector): over 1 μA

Molecule: Cc1ccc(C(C)C)cc1O [carvacrol]
effect on VUAA1-activated Orco [6]: inhibit VUAA1-activated Orco

Molecule: c1ccc2[nH]ccc2c1 [indole]
concentration range of selective response of OR2 [7]: upper picomolar range | solubility in water [8]: sparingly soluble

Molecule: Cc1c[nH]c2ccccc12 [skatole]
concentration range of selective response of OR9/OR10 [9]: upper picomolar range | solubility in water [8]: sparingly soluble

Molecule: octadienal
effect on VUAA1-activated Orco [6]: inhibit VUAA1-activated Orco
